Test results as given in patent publication US20200397675A1, “METHOD FOR IMPROVING SOLUBILITY OF SPARINGLY WATER-SOLUBLE COMPONENT” (ADEKA CORPORATION, priority 2018, published 2020).

Assay: Investigation of solubility of sparingly water-soluble components in Solutions 1 to 9 (0.1 g additions until turbidity)
Conditions: 25° C.
Description: In addition, confirmation that turbidity or precipitation had not occurred was carried out by adding 0.1 g of the sparingly water-soluble component at a time, stirring for 10 minutes at 25° C. and then leaving to stand. […] Moreover, further tests were not carried out in cases where the solubility exceeded 5 [g/100 g solution].

CCCCC(CC)COCC(O)CO (stereo not drawn) [2-ethylhexyl glyceryl ether]
solubility (Comparative Example 1, Solution 1 (water 100 g)): 0.2 g/100 g solution | solubility (Comparative Example 2, Solution 4 (water 90 g, ethanol 10 g)): 0.3 g/100 g solution | solubility (Comparative Example 3, Solution 5 (water 90 g, propylene glycol 10 g)): 0.3 g/100 g solution | solubility (Comparative Example 4, Solution 6 (water 90 g, dipropylene glycol 10 g)): 0.3 g/100 g solution | solubility (Comparative Example 5, Solution 7 (water 90 g, butylene glycol 10 g)): 0.2 g/100 g solution | solubility (Comparative Example 6, Solution 8 (water 90 g, glycerin 10 g)): 0.2 g/100 g solution | solubility (Example 1, Solution 2 (water 90 g, Compound (1)-1 10 g)): 1.5 g/100 g solution | solubility (Example 2, Solution 3 (water 90 g, Compound (1)-2 10 g)): 2.3 g/100 g solution | solubility (Example 3, Solution 9 (water 80 g, Compound (1)-2 10 g, butylene glycol 10 g)): >5 g/100 g solution
